The values that follow come from ChEMBL document CHEMBL4616626, “Design, synthesis and biological evaluation of HIV-1 protease inhibitors with morpholine derivatives as P2 ligands in combination with cyclopropyl as P1' ligand” (Bioorg Med Chem Lett, 2020).

The test has as its target Human immunodeficiency virus type 1 protease (Human immunodeficiency virus 1, UniProt Q72874). The test can be described thus: Inhibition of HIV1 protease by FRET assay.
Broadly, the IC50 is the concentration needed to halve the response being measured. Lower therefore signals greater potency in that assay. `C[C@@H]1CN(CC(=O)N[C@@H](Cc2ccccc2)[C@H](O)CN(C2CC2)S(=O)(=O)c2ccc(N)cc2)CCO1` displayed an IC50 of 1530 nM.

In turn, `COc1ccc(S(=O)(=O)N(C[C@@H](O)[C@H](Cc2ccccc2)NC(=O)CN2CCO[C@H](C)C2)C2CC2)cc1` came in with a concentration for half-maximal inhibition (IC50) of 190 nM.

On to `O=C(CN[C@@H](Cc1ccccc1)[C@H](O)CN(C1CC1)S(=O)(=O)c1ccc([N+](=O)[O-])cc1)N1CCOCC1`, for which the IC50 was over 10000 nM.

Take `Nc1ccc(S(=O)(=O)N(C[C@@H](O)[C@H](Cc2ccccc2)NCC(=O)N2CCOCC2)C2CC2)cc1`: the half-maximal inhibitory concentration (IC50) came to 1150 nM.

For `O=S(=O)(c1ccc(C(F)(F)F)cc1)N(C[C@@H](O)[C@H](Cc1ccccc1)NCCN1CCOCC1)C1CC1`, half-maximal inhibition (IC50) was put at 1690 nM.

The compound `COc1ccc(S(=O)(=O)N(C[C@@H](O)[C@H](Cc2ccccc2)NC(=O)N2CCOCC2)C2CC2)cc1` had a half-inhibitory concentration (IC50) of 260 nM.

In the case of `O=C(N[C@@H](Cc1ccccc1)[C@H](O)CN(C1CC1)S(=O)(=O)c1ccc([N+](=O)[O-])cc1)OCCN1CCOCC1`, it took 80 nM to reach half-maximal inhibition (IC50).

With `C[C@@H]1CN(CC(=O)N[C@@H](Cc2ccccc2)[C@H](O)CN(C2CC2)S(=O)(=O)c2ccc(C(F)(F)F)cc2)CCO1`, the IC50 was found to be 2990 nM.

In turn, `COc1ccc(S(=O)(=O)N(C[C@@H](O)[C@H](Cc2ccccc2)NCC(=O)N2CCOCC2)C2CC2)cc1` showed an IC50 of 180 nM.

In turn, `O=C(CN1CCOCC1)N[C@@H](Cc1ccccc1)[C@H](O)CN(C1CC1)S(=O)(=O)c1ccc([N+](=O)[O-])cc1` registered a 50% inhibitory concentration (IC50) of 5430 nM.

`C[C@H]1CN(CC(=O)N[C@@H](Cc2ccccc2)[C@H](O)CN(C2CC2)S(=O)(=O)c2ccc(C(F)(F)F)cc2)CCO1`: the midpoint of inhibition, the IC50, lay at 400 nM.

`Nc1ccc(S(=O)(=O)N(C[C@@H](O)[C@H](Cc2ccccc2)NC(=O)N2CCOCC2)C2CC2)cc1`: the 50% inhibitory concentration (IC50) was found to be 640 nM.

In turn, `C[C@H]1CN(CC(=O)N[C@@H](Cc2ccccc2)[C@H](O)CN(C2CC2)S(=O)(=O)c2ccc(N)cc2)CCO1` came in with a 50% inhibitory concentration (IC50) of 1340 nM.

The compound `O=C(CN1CCOCC1)N[C@@H](Cc1ccccc1)[C@H](O)CN(C1CC1)S(=O)(=O)c1ccc(C(F)(F)F)cc1` displayed a half-inhibitory concentration (IC50) of 400 nM.

Consider `C[C@H]1CN(CC(=O)N[C@@H](Cc2ccccc2)[C@H](O)CN(C2CC2)S(=O)(=O)c2ccc([N+](=O)[O-])cc2)CCO1`, for which the half-maximal inhibitory concentration (IC50) is 580 nM.

For `Nc1ccc(S(=O)(=O)N(C[C@@H](O)[C@H](Cc2ccccc2)NC(=O)OCCN2CCOCC2)C2CC2)cc1`, half-maximal inhibition (IC50) required 61 nM.

In turn, `COc1ccc(S(=O)(=O)N(C[C@@H](O)[C@H](Cc2ccccc2)NC(=O)CN2CCO[C@@H](C)C2)C2CC2)cc1` returned an IC50 of 1270 nM.

Consider `O=[N+]([O-])c1ccc(S(=O)(=O)N(C[C@@H](O)[C@H](Cc2ccccc2)NCCN2CCOCC2)C2CC2)cc1`, for which half-maximal inhibition (IC50) required 610 nM.

`O=C(N[C@@H](Cc1ccccc1)[C@H](O)CN(C1CC1)S(=O)(=O)c1ccc(C(F)(F)F)cc1)OCCN1CCOCC1` came in with an IC50 of 120 nM.

`O=C(CN[C@@H](Cc1ccccc1)[C@H](O)CN(C1CC1)S(=O)(=O)c1ccc(C(F)(F)F)cc1)N1CCOCC1` came in with a half-inhibitory concentration (IC50) of 1260 nM.

Take `COc1ccc(S(=O)(=O)N(C[C@@H](O)[C@H](Cc2ccccc2)NCCN2CCOCC2)C2CC2)cc1`: the half-inhibitory concentration (IC50) turned out to be 170 nM.

In turn, `COc1ccc(S(=O)(=O)N(C[C@@H](O)[C@H](Cc2ccccc2)NC(=O)OCCN2CCOCC2)C2CC2)cc1` displayed an IC50 of 53 to 54 nM.

Compound `COc1ccc(S(=O)(=O)N(C[C@@H](O)[C@H](Cc2ccccc2)NC(=O)CN2CCOCC2)C2CC2)cc1` yielded an IC50 of 1040 nM.

`O=C(N[C@@H](Cc1ccccc1)[C@H](O)CN(C1CC1)S(=O)(=O)c1ccc([N+](=O)[O-])cc1)N1CCOCC1` came in with an IC50 of 790 nM.

Turning to `Nc1ccc(S(=O)(=O)N(C[C@@H](O)[C@H](Cc2ccccc2)NC(=O)CN2CCOCC2)C2CC2)cc1`, the half-maximal inhibitory concentration (IC50) is over 10000 nM.

With `O=C(N[C@@H](Cc1ccccc1)[C@H](O)CN(C1CC1)S(=O)(=O)c1ccc(C(F)(F)F)cc1)N1CCOCC1`, the concentration for half-maximal inhibition (IC50) is 47 nM.

`Nc1ccc(S(=O)(=O)N(C[C@@H](O)[C@H](Cc2ccccc2)NCCN2CCOCC2)C2CC2)cc1` showed a 50% inhibitory concentration (IC50) of 940 nM.

`C[C@@H]1CN(CC(=O)N[C@@H](Cc2ccccc2)[C@H](O)CN(C2CC2)S(=O)(=O)c2ccc([N+](=O)[O-])cc2)CCO1`: the 50% inhibitory concentration (IC50) amounted to 930 nM.
